Measured values taken from the NIST ThermoML archive (doi:10.1021/je0501843).

Assay: molar heat capacity at constant volume; wn = mass fraction of the nth substance listed
Settings: Fluid (supercritical or subcritical phases), Vacuum adiabatic calorimetry, w1 = 0.5001

FC(F)C(F)(F)F [pentafluoroethane] + FCF
Settings	molar heat capacity at constant volume [J/K/mol]
363 K, 13894 kPa	70.07
364 K, 6970 kPa	80.93
364 K, 7223 kPa	79.29
364 K, 7494 kPa	80.29
364 K, 7828 kPa	75.98
364 K, 10192 kPa	72.66
364 K, 14207 kPa	69.59
365 K, 7077 kPa	80.93
365 K, 7344 kPa	79.26
365 K, 7632 kPa	79.75
365 K, 7982 kPa	75.67
365 K, 10427 kPa	72.54
365 K, 14520 kPa	69.04
366 K, 7184 kPa	80.58
366 K, 7465 kPa	80.45
366 K, 7771 kPa	80.4
366 K, 8137 kPa	76.08
366 K, 10664 kPa	73.17
366 K, 14835 kPa	69.94
367 K, 7291 kPa	80.32
367 K, 7587 kPa	79.46
367 K, 7907 kPa	79.31
367 K, 8294 kPa	74.79
367 K, 10900 kPa	72.03
367 K, 15148 kPa	69.1
368 K, 7397 kPa	79.17
368 K, 7708 kPa	77.58
368 K, 8044 kPa	77.88
368 K, 8449 kPa	74.12
368 K, 11133 kPa	71.25
368 K, 15462 kPa	68.32
369 K, 7504 kPa	79.62
369 K, 7831 kPa	78.35
369 K, 8183 kPa	78.65
369 K, 8605 kPa	76.18
369 K, 11369 kPa	72.83
369 K, 15777 kPa	69.74
370 K, 7612 kPa	79.45
370 K, 7953 kPa	77.86
370 K, 8323 kPa	77.55
370 K, 8762 kPa	76.14
370 K, 11608 kPa	72.92
370 K, 16094 kPa	69.84
371 K, 7719 kPa	78.97
371 K, 8075 kPa	77.56
371 K, 8460 kPa	76.45
371 K, 8917 kPa	74.86
371 K, 11844 kPa	72.52
371 K, 16410 kPa	69.31
372 K, 7825 kPa	78.44
372 K, 8198 kPa	77.29
372 K, 8601 kPa	75.95
372 K, 9073 kPa	74.57
372 K, 12081 kPa	71.78
372 K, 16724 kPa	69.08
373 K, 7931 kPa	77.94
373 K, 8321 kPa	76.93
373 K, 8740 kPa	76.42
373 K, 9230 kPa	74.03
373 K, 12318 kPa	72.32
373 K, 17037 kPa	69.04
374 K, 8039 kPa	79.02
374 K, 8445 kPa	77.8
374 K, 8878 kPa	77.52
374 K, 9389 kPa	74.39
374 K, 12556 kPa	73.35
374 K, 17355 kPa	69.94
375 K, 8147 kPa	78.2
375 K, 8567 kPa	75.61
375 K, 9016 kPa	76.25
375 K, 9544 kPa	73.41
375 K, 12795 kPa	71.55
375 K, 17669 kPa	69.58
376 K, 8254 kPa	77.5
376 K, 8690 kPa	75.69
376 K, 9155 kPa	75.06
376 K, 9701 kPa	73.09
376 K, 13033 kPa	71.53
376 K, 17984 kPa	69.16
377 K, 8362 kPa	78.12
377 K, 8813 kPa	76.87
377 K, 9295 kPa	76.67
377 K, 9858 kPa	74.31
377 K, 13272 kPa	72.67
377 K, 18301 kPa	69.67
378 K, 8469 kPa	77.78
378 K, 8937 kPa	76.5
378 K, 9437 kPa	77.01
378 K, 10018 kPa	74.83
378 K, 13511 kPa	71.98
378 K, 18619 kPa	69.86
379 K, 8575 kPa	76.76
379 K, 9060 kPa	75.82
379 K, 9576 kPa	76.42
379 K, 10174 kPa	74.57
379 K, 13747 kPa	71.87
379 K, 18935 kPa	70.14
380 K, 8683 kPa	76.61
380 K, 9183 kPa	75.69
380 K, 9715 kPa	75.6
380 K, 10331 kPa	73.35
380 K, 13988 kPa	71.55
381 K, 8790 kPa	77.44
381 K, 9306 kPa	77.28
381 K, 9856 kPa	75.26
381 K, 10492 kPa	73.9
381 K, 14227 kPa	72.04
382 K, 8897 kPa	78.41
382 K, 9432 kPa	76.92
382 K, 9996 kPa	76.48
382 K, 10651 kPa	74.52
382 K, 14466 kPa	72.98
383 K, 9005 kPa	77.33
383 K, 9553 kPa	75.97
383 K, 10136 kPa	75.35
383 K, 10808 kPa	74.44
383 K, 14706 kPa	72.4
384 K, 9112 kPa	76.6
384 K, 9679 kPa	76.51
384 K, 10277 kPa	75.34
384 K, 10967 kPa	74.6
384 K, 14944 kPa	71.93
385 K, 9219 kPa	77.25
385 K, 9804 kPa	75.82
385 K, 10418 kPa	76.16
385 K, 11125 kPa	74.07
385 K, 15188 kPa	72.26
386 K, 9326 kPa	78.28
386 K, 9929 kPa	76.35
386 K, 10558 kPa	76.6
386 K, 11283 kPa	75.16
386 K, 15426 kPa	73.47
387 K, 9434 kPa	77.16
387 K, 10051 kPa	76.61
387 K, 10699 kPa	76.14
387 K, 11442 kPa	74.89
387 K, 15666 kPa	72.66
388 K, 9540 kPa	76.32
388 K, 10174 kPa	74.86
388 K, 10840 kPa	75.57
388 K, 11602 kPa	73.37
388 K, 15904 kPa	71.19
389 K, 9649 kPa	77.31
389 K, 10296 kPa	75.87
389 K, 10980 kPa	76.71
389 K, 11761 kPa	73.84
389 K, 16147 kPa	71.61
390 K, 9756 kPa	77.57
390 K, 10421 kPa	77.3
390 K, 11124 kPa	76.88
390 K, 11922 kPa	75.02
390 K, 16388 kPa	72.19
391 K, 9862 kPa	77.21
391 K, 10547 kPa	76.53
391 K, 11263 kPa	76.5
391 K, 12081 kPa	74.96
391 K, 16627 kPa	71.79
392 K, 9969 kPa	77.4
392 K, 10670 kPa	75.59
392 K, 11403 kPa	75.77
392 K, 12239 kPa	73.58
392 K, 16868 kPa	71.21
393 K, 10077 kPa	78.13
393 K, 10795 kPa	76.57
393 K, 11546 kPa	75.66
393 K, 12400 kPa	74.26
393 K, 17110 kPa	71.47
394 K, 10185 kPa	78.09
394 K, 10920 kPa	77.19
394 K, 11688 kPa	76.6
394 K, 12560 kPa	75.24
394 K, 17351 kPa	71.82
395 K, 10292 kPa	77.54
395 K, 11045 kPa	76.74
395 K, 11829 kPa	75.92
395 K, 12720 kPa	73.89
395 K, 17590 kPa	71.67
396 K, 10400 kPa	77.68
396 K, 11168 kPa	76.85
396 K, 11972 kPa	76.16
396 K, 12880 kPa	73.78
396 K, 17831 kPa	71.16
397 K, 10508 kPa	78.41
397 K, 11292 kPa	76.06
397 K, 12113 kPa	76.4
397 K, 13040 kPa	74.36
397 K, 18073 kPa	71.18
398 K, 10616 kPa	78.25
398 K, 11415 kPa	76.66
398 K, 12256 kPa	75.92
398 K, 13199 kPa	74.81
398 K, 18315 kPa	72.43
399 K, 10723 kPa	77.16
399 K, 11538 kPa	76.8
399 K, 12395 kPa	76.53
399 K, 13361 kPa	74.08
399 K, 18556 kPa	72.11
